US20220233558A1, “METHOD AND COMPOSITION FOR PREDICTING EFFICACY OF BCL2/BCL-XL INHIBITORS ON CANCER” (Ascentage Pharma (Suzhou) Co., Ltd., priority 2019, published 2022)

How the values were obtained:
BCL-2:BIM complex = BCL-2:BIM complex (Homo sapiens, UniProt P10415); assay: MSD advanced ELISA of BCL-2:BIM complex in Toledo and RS4;11 cells; type: cell-based; conditions: treated for 24 hours
Experimental: Toledo (a diffuse large B cell lymphoma line) and RS4;11 (an acute lymphocytic leukemia line) were chosen for the study. […] Both BCL-2:BIM and BCL-XL:BIM complex were analyzed following previously established MSD advanced ELISA methods.
BCL-XL:BIM complex [1] = molecular target: T1, BCL-XL:BIM complex (Homo sapiens, UniProt Q07817); assay: MSD advanced ELISA of BCL-XL:BIM complex in Toledo cells; type: cell-based; design: endogenous in cells; host or cells: Toledo; conditions: treated for 24 hours
Experimental: (§1) MSD advanced ELISA is a method similar to enzyme-linked immunosorbent assay (ELISA) except MSD uses electrochemiluminescence (ECL) as a detection technique while ELISA uses a colormetric reaction. In general, a solution (e.g. cell lysate) containing the protein/complex of interest is added to a substrate (e.g., wells in a plate) coated with a capture antibody specifically binding to a protein of interest. After washing, a second antibody specifically binding to a partner protein that binds to the protein of interest is added. The second antibody (or an antibody binding to the second antibody) is linked to an ECL agent, e.g. a ruthenium (Ru) metal ion, and the substrate contains an electrode. In the presence of the partner protein/protein complex, the second antibody binds to the protein complex, and the ruthenium ion will be close enough proximity to the electrode to trigger an oxidation-reduction reaction that produces light which can be detected by a CCD camera. Compared to a traditional ELISA, MSD has many advantages such as higher sensitivity, better dynamic range, less matric effects, less sample required and better efficiencies. As a result, MSD can be used to detect a protein complex in cell lysate.
(§2) Toledo (a diffuse large B cell lymphoma line) and RS4;11 (an acute lymphocytic leukemia line) were chosen for the study. Cells were treated for 24 hours with compounds specified in FIGS. 6A and 7A (Toledo), and FIGS. 6B and 7B (RS4;11; Compound B, ABT-737 and ABT-263 were used the same concentrations for each cell line) and harvested for complex analysis. Both BCL-2:BIM and BCL-XL:BIM complex were analyzed following previously established MSD advanced ELISA methods.

BCL-XL:BIM complex [2] = molecular target: T1, BCL-XL:BIM complex; assay: MSD advanced ELISA of BCL-XL:BIM complex in RS4;11 cells; type: cell-based; design: endogenous in cells; host or cells: Toledo; conditions: treated for 24 hours
Experimental: as §1, §2

BCL-xL = BCL-xL (Homo sapiens, UniProt Q07817); assay: Binding affinity to BCL-xL protein
[3] = test system: BCL-2, MCL-1, BIM, PUMA protein levels; assay: Western blotting of apoptosis proteins in PDX samples; type: in vivo; conditions: PDX models, Western blot
Experimental: PDX models (including 8 gastric cancers and 3 esophageal cancers) were selected for trials with BCL-2/BCL-XL dual inhibitor Compound A. Models were treated with 100 mg/kg twice weekly dosing schedule for three weeks, and tumor tissues were harvested for complexes analysis (specified in the figure panels) with MSD methods. Pharmacodynamics (PD) and biomarker studies of Compound A treatment were performed by MSD and Western blotting (WB) assays. Specifically, protein extraction was performed with the sample, level of protein complex was measured by MSD methods, and the level of protein was measured by Western Blotting. TGI for each animal was calculated.

Mcl-1 protein = Mcl-1 protein (Homo sapiens, UniProt Q07820); assay: Binding affinity to Mcl-1 protein
cancer cell lines = assay: Cell growth inhibitory activity in vitro; type: cell-based; conditions: subset of cancer cell lines
BCL-2 = BCL-2 (Homo sapiens, UniProt P10415); assay: Binding affinity to BCL-2 protein
BCL-XL:BIM complex [4] = molecular target: T1, BCL-XL:BIM complex; assay: MSD assay of BCL-XL complexes in gastric and esophageal cancer PDX models; type: in vivo; design: endogenous in cells
Experimental: as §1, with “Compared to a traditional ELISA, MSD has many advantages such as higher sensitivity, better dynamic range, less matric effects, less sample required and better efficiencies. As a result, MSD can be used to detect a protein complex in cell lysate.” left out
PDX models (including 8 gastric cancers and 3 esophageal cancers) were selected for trials with BCL-2/BCL-XL dual inhibitor Compound A. Models were treated with 100 mg/kg twice weekly dosing schedule for three weeks, and tumor tissues were harvested for complexes analysis (specified in the figure panels) with MSD methods. […] TGI for each animal was calculated.

BCL-w = molecular target: T2, BCL-w (Homo sapiens, UniProt Q92843); assay: Binding affinity to BCL-w protein
T2 sequence (Q92843 1-193): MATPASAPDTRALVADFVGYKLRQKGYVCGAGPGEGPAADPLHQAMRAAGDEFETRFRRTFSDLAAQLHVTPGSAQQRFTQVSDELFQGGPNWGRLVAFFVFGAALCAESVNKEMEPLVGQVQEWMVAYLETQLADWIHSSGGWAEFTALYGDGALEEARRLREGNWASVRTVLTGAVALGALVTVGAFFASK

caspase-3 and PARP = assay: Cleavage of caspase-3 and PARP (apoptosis markers); type: cell-based; conditions: in cancer cells and in xenograft tumor tissues

T1 sequence (Q07817 whole entry, one chain of several): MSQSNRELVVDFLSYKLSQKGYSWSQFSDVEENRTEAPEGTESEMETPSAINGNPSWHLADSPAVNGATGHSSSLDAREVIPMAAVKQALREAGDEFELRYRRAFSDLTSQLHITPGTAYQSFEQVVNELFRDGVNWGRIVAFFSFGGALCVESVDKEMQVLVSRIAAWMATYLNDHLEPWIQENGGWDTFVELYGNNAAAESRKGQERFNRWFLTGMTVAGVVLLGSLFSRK
Chain of BCL-xL (Q07817 whole entry): as the sequence (Q07817 whole entry, one chain of several) above
Chain of BCL-2:BIM complex (P10415 whole entry, one chain of several): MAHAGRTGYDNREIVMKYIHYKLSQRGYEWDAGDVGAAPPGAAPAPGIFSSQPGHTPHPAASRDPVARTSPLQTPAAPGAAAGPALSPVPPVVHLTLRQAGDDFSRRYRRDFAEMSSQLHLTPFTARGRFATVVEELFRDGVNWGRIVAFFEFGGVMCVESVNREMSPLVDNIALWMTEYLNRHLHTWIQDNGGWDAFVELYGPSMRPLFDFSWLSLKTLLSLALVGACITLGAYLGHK
Chain of BCL-2 (P10415 whole entry): as the sequence (P10415 whole entry, one chain of several) above
Chain of Mcl-1 protein (Q07820 whole entry): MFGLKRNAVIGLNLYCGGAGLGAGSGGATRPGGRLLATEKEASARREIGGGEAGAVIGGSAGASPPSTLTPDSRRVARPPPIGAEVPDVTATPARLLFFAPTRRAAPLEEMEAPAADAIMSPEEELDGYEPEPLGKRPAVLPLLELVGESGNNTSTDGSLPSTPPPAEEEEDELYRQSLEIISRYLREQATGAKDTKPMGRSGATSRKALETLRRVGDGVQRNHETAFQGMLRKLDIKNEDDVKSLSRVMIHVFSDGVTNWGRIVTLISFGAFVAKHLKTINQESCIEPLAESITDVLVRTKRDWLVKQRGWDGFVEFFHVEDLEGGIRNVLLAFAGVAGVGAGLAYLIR

## CC1(C)CCC(c2ccc(Cl)cc2)=C(CN2CCN(c3ccc(C(=O)NS(=O)(=O)c4ccc(N[C@H](CCN5CCOCC5)CSc5ccccc5)c(S(=O)(=O)C(F)(F)F)c4)cc3)CC2)C1 [ABT-263]
BCL-2:BIM complex
  change in BCL-2:BIM complex: reduction in BCL-2:BIM complex
BCL-XL:BIM complex [1]
  disruption of BCL-XL:BIM complex: much less disruption of BCL-XL:BIM complex than Compound B
BCL-XL:BIM complex [2]
  disruption of BCL-XL:BIM complex: much less disruption of BCL-XL:BIM complex than Compound B

## Cc1c(S(C)(=O)=O)c(-c2cc(F)cc(N3CCN(c4ccc(NS(=O)(=O)c5ccc(N[C@H](CCN6CCC(C(=O)OCCP(=O)(O)O)CC6)CSc6ccccc6)c(S(=O)(=O)C(F)(F)F)c5)cc4)CC3)c2)c(-c2ccc(Cl)cc2)n1C(C)C [Compound A, (R)-2-(1-(3-(4-(N-(4-(4-(3-(2-(4-chlorophenyl)-1-isopropyl-5-methyl-4-(methylsulfonyl)-1H-pyrrol-3-yl)-5-fluorophenyl)piperazin-1-yl)phenyl)sulfamoyl)-2-(trifluoromethylsulfonyl)phenylamino)-4-(phenylthiol)butyl)piperidine-4-carbonyloxy)ethylphosphonic acid]
BCL-xL
  IC50: 4.4 nM
[3]
  BCL-2 and MCL-1 anti-death protein levels after treatment: significantly or in trend increases
  pro-death proteins BIM or PUMA levels after treatment: but not pro-death proteins BIM or PUMA
Mcl-1 protein
  affinity to Mcl-1 protein: weak affinity
Cancer cell lines
  cell growth inhibitory activity: nanomolar potencies
BCL-2
  IC50: 1.6 nM
BCL-XL:BIM complex [4]; PDX models, 100 mg/kg twice weekly for three weeks, MSD assay
  level of BCL-XL:BIM complex after treatment: dropped
BCL-XL:BIM complex [4]; in PDX
  targeting of BCL-XL versus BCL-2 complex: better in targeting BCL-XL than BCL-2 complex
BCL-w
  IC50: 9.3 nM
caspase-3 and PARP
  cleavage of caspase-3 and PARP: effectively induces cleavage of caspase-3 and PARP

## CN(C)CC[C@H](CSc1ccccc1)Nc1ccc(S(=O)(=O)NC(=O)c2ccc(N3CCN(Cc4ccccc4-c4ccc(Cl)cc4)CC3)cc2)cc1[N+](=O)[O-] [ABT-737]
BCL-XL:BIM complex [1]
  disruption of BCL-XL:BIM complex: much less disruption of BCL-XL:BIM complex than Compound B
BCL-XL:BIM complex [2]
  disruption of BCL-XL:BIM complex: almost no disruption of BCL-xL:BIM complex

## Cc1c(S(C)(=O)=O)c(-c2cc(F)cc(N3CCN(c4ccc(NS(=O)(=O)c5ccc(N[C@H](CCN6CCC(C(=O)O)CC6)CSc6ccccc6)c(S(=O)(=O)C(F)(F)F)c5)cc4)CC3)c2)c(-c2ccc(Cl)cc2)n1C(C)C [Compound B, (R)-1-(3-(4-(N-(4-(4-(3-(2-(4-chlorophenyl)-1-isopropyl-5-methyl-4-(methylsulfonyl)-1H-pyrrol-3-yl)-5-fluorophenyl)piperazin-1-yl)phenyl)sulfamoyl)-2-(trifluoromethylsulfonyl)phenylamino)-4-(phenylthio)butyl)piperldine-4-carboxylic acid]
BCL-XL:BIM complex [1]
  disruption of BCL-XL:BIM complex: more potently disrupted BCL-XL:BIM than BCL-2:BIM complex
BCL-XL:BIM complex [2]
  disruption of BCL-XL:BIM complex: more potently disrupted BCL-XL:BIM than BCL-2:BIM complex
